Here are results for eight compounds from ChEMBL document CHEMBL1201862, “PubChem BioAssay data set” (2004).

Each structure is given as a SMILES string. Active and inactive are the calls of the source. Bounds are passed on as bounds.

Test [1] addresses T1, Cannabinoid receptor 2 (Homo sapiens, UniProt P34972). Briefly: SAR analysis of antagonists of the Cannabinoid Receptor 2 using an Image-Based Assay. [Related pubchem assays (depositor defined):AID2013, AID2026]. It counts as functional.
Test [2] deals with T2, G-protein coupled receptor 35 (Homo sapiens, UniProt Q9HC97). Description: SAR analysis of Agonists of the GPR35 Receptor using an Image-Based Assay - Set 2. [Related pubchem assays (depositor defined):AID2013, AID2026]. It counts as functional.
T2 sequence (Q9HC97 whole entry): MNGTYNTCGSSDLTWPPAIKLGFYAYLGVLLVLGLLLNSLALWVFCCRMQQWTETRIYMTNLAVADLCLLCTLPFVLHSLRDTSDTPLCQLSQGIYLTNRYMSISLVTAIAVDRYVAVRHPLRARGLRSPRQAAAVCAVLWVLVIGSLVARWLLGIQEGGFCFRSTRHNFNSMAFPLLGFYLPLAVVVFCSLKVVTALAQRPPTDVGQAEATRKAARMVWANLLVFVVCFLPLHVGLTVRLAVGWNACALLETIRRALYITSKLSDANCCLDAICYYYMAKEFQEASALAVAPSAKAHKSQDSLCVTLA
In test [3] the target is T3, G-protein coupled receptor 55 (Homo sapiens, UniProt Q9Y2T6). Description: inhibition of LPI-stimulated GPR55 beta-arrestin translocation – imaging, U2OS, beta-arrestin-GFP, LPI agonist, primary screen (AID 2013).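 Further: antagonist potency measured as reduced agonist-driven arrestin aggregation.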 It counts as functional.
T3 sequence (Q9Y2T6 whole entry): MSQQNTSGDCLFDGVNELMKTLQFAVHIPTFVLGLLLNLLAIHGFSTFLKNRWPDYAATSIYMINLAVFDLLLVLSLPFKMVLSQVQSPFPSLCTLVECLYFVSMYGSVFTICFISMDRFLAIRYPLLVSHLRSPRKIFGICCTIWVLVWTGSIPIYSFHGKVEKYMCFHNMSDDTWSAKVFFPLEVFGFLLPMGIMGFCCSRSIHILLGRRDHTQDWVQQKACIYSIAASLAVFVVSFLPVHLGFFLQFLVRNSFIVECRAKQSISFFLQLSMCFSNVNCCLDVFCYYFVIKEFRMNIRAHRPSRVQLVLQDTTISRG
In test [4] the target is T4, Cannabinoid receptor 1 (Homo sapiens, UniProt P21554). Briefly: SAR analysis of antagonists of the Cannabinoid Receptor 1 using an Image-Based Assay - Set 2. [Related pubchem assays (depositor defined):AID2013, AID2026]. It counts as functional.
T4 sequence (P21554 whole entry): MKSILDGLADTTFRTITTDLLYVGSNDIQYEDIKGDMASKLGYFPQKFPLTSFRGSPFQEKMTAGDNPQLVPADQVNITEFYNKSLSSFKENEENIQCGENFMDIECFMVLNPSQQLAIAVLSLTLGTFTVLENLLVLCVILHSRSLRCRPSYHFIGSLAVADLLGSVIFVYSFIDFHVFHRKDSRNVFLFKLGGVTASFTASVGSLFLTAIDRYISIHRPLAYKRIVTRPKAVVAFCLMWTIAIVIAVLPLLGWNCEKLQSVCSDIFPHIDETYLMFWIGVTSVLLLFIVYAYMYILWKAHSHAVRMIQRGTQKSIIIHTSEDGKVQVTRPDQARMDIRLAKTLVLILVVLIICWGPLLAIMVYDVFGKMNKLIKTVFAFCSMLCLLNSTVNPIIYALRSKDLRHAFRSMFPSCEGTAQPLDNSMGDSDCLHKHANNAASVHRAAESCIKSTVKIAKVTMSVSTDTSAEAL
The target in test [5] is T1, Cannabinoid receptor 2. Description: SAR analysis of agonists of the Cannabinoid Receptor 2 using an Image-Based Assay. [Related pubchem assays (depositor defined):AID2013, AID2026]. In kind it is functional.
The target of test [6] is T4, Cannabinoid receptor 1. Briefly: SAR analysis of agonists of the Cannabinoid Receptor 1 using an Image-Based Assay - Set 2. [Related pubchem assays (depositor defined):AID2013, AID2026]. In kind it is functional.
Test [7] in a line: Luminescence Cell-Based Dose Retest to Confirm Inhibitors of Cancer Stem Cells. [Related pubchem assays (depositor defined):AID2717, AID2721]. It counts as functional. Particulars: Homo sapiens.
Test [8] deals with T2, G-protein coupled receptor 35. Description: SAR analysis of Antagonists of the GPR35 Receptor using an Image-Based Assay - Set 3. [Related pubchem assays (depositor defined):AID2013, AID2026]. In kind it is functional.
Test [9] deals with Tyrosine-protein phosphatase non-receptor type 12 (Homo sapiens, UniProt Q05209). Briefly: SAR Selectivity Analysis of small molecule inhibitors of PEST using pCAP in a fluorescence assay. [Related pubchem assays (depositor defined):AID1779, AID1784, AID2135]. In kind it is functional.
The target in test [10] is T5, Tyrosine-protein phosphatase non-receptor type 22 (Homo sapiens, UniProt Q9Y2R2).
T5 sequence (Q9Y2R2 whole entry): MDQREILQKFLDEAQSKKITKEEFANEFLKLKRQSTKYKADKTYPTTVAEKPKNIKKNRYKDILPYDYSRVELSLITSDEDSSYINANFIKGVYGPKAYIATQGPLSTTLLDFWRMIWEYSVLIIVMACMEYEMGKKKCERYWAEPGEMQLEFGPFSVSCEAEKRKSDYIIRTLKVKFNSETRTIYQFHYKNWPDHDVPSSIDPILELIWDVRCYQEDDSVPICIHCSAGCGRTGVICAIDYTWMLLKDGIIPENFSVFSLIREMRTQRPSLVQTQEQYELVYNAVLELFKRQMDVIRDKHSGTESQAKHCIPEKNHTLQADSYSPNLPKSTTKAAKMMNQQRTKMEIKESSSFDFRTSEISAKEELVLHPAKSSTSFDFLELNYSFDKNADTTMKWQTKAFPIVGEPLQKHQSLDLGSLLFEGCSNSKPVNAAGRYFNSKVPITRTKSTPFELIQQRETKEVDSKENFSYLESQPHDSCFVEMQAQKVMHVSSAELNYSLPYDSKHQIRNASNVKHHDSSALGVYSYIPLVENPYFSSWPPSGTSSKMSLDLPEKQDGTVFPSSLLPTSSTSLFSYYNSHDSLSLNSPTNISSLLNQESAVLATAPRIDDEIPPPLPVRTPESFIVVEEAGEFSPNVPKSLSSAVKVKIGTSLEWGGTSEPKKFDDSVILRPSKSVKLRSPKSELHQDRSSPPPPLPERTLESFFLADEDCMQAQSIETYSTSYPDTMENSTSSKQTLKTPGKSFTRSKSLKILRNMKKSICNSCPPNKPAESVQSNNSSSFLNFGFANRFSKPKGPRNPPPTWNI
Briefly: SAR LYP1 Fluorescent Assay using OMFP substrate for In Vitro dose response studies - Set 3. [Related pubchem assays (depositor defined):AID1779, AID1784, AID2140, AID2686]. In kind it is functional.

Test [11] addresses T5, Tyrosine-protein phosphatase non-receptor type 22. Description: inhibition of lymphoid tyrosine phosphatase LYP – biochemical, pCAP fluorogenic substrate, fluorescence, set 3, SAR follow-up (AID 449727). It counts as functional.
Test [12] concerns the target T2, G-protein coupled receptor 35. Description: inhibition of zaprinast-stimulated GPR35 beta-arrestin translocation – imaging, U2OS, beta-arrestin-GFP, zaprinast agonist, primary screen (AID 2058).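 Further: antagonist potency meaning inhibition of agonist-induced arrestin redistribution.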 It counts as functional.
Test [13] addresses 72 kDa type IV collagenase (Homo sapiens, UniProt P08253). Briefly: Dose Response validation of uHTS RPN11 inhibitor hits using a MMP-2 Fluorescence assay. It counts as functional.
Test [14] concerns the target T6, Tyrosine-protein phosphatase non-receptor type 7 (Homo sapiens, UniProt P35236).
T6 sequence (P35236 whole entry): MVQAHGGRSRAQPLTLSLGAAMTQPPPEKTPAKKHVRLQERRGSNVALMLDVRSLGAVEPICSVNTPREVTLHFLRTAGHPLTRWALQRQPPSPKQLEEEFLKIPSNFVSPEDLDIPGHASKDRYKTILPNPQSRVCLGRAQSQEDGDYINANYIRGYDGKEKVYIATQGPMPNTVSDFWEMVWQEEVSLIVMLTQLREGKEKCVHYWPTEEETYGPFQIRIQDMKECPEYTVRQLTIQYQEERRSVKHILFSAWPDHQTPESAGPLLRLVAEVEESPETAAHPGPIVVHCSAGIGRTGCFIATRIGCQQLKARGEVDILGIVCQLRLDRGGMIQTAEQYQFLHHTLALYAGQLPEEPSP
Description: inhibition of hematopoietic tyrosine phosphatase HePTP – biochemical, set 2, SAR follow-up (AID 449736). It counts as functional.

Test [15] addresses T2, G-protein coupled receptor 35. Description: SAR Analysis for the identification of Selective Antagonists of ERK1/2 Activity in GPR35-Overexpressing U2OS Cells. [Related pubchem assays: 2079, 2058 ]. In kind it is functional, cell-based.
For test [16], the target named is T3, G-protein coupled receptor 55. Briefly: blockers of GPR55 signalling, imaged – imaging, image-based, counter-screen for GPR35 antagonist project, SAR follow-up (AID 2397). In kind it is functional. On the technique in general: The purpose of a counterscreen is to sort out artefacts and off-target activity.
The target in test [17] is Prothrombin (Bos taurus, UniProt P00735). Description: thrombin protease inhibitors – biochemical, fluorescence polarization, uHTS hits, dose response (AID 602369). It counts as functional.
Test [18] addresses 26S proteasome non-ATPase regulatory subunit 14 (Homo sapiens, UniProt O00487). Description: inhibition of proteasome subunit RPN11 – biochemical, fluorescence polarization, uHTS hits, confirmation (AID 602368). It counts as functional. (In fluorescence polarisation assays a small probe gives low polarisation when free and higher when bound to something large.)
Test [19] deals with T7, Mannose-6-phosphate isomerase (Homo sapiens, UniProt P34949).
T7 sequence (P34949 whole entry): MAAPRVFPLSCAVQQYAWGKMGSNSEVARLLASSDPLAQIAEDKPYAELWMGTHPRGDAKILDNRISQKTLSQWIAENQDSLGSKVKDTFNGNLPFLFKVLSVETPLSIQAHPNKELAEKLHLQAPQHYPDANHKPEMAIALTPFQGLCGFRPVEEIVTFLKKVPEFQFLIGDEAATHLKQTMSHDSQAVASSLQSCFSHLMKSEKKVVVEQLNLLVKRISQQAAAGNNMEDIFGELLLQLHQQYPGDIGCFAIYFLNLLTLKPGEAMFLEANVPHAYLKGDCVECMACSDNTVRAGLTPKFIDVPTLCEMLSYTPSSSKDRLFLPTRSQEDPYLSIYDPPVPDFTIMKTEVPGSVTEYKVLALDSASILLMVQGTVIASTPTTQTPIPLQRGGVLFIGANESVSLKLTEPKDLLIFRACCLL
Description: phosphomannose isomerase inhibition – biochemical, fluorescence intensity, confirmation (AID 1535).

The target of test [20] is Phosphomannomutase 2 (Homo sapiens, UniProt O15305). Description: Counter screen SAR assay for PMM2 inhibitors via a fluorescence intensity assay. [Related pubchem assays (depositor defined):AID1545, AID1574].
Chain of Phosphomannomutase 2 (O15305 whole entry): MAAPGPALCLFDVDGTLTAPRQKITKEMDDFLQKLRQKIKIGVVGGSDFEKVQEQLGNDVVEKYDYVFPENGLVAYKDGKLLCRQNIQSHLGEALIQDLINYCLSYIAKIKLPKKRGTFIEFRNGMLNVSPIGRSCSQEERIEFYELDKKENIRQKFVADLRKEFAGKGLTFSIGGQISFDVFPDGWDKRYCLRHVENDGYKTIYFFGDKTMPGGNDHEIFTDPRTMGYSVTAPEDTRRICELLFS
The target of test [21] is Albumin (Bos taurus, UniProt P02769). Description: Counterscreen for inhibitors of T-cell receptor (TCR)-CD3 interaction: Fluorescence-based biochemical high throughput dose response assay to identify inhibitors of T-cell receptor (TCR)-CD3 interaction using a TAMRA-labeled BSA probe. In kind it is functional.
Test [22] concerns the target T8, Alkaline phosphatase, tissue-nonspecific isozyme (Homo sapiens, UniProt P05186).
T8 sequence (P05186 whole entry): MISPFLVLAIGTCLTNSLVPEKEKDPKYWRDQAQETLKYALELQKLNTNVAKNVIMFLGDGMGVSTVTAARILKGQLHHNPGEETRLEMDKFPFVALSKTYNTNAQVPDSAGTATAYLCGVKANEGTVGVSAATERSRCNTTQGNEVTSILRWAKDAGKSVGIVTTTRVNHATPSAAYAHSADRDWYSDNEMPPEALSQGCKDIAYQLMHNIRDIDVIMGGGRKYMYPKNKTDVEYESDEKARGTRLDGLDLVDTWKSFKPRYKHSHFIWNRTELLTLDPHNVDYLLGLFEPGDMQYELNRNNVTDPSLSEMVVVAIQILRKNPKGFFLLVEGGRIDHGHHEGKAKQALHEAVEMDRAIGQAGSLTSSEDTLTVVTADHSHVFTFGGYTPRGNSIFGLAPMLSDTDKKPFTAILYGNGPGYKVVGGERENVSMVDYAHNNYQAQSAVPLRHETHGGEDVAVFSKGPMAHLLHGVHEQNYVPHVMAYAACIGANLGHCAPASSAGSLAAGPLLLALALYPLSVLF
Briefly: TNAP enzyme inhibition by screening hits, dose response, selectivity assay for mouse IAP inhibitor project, biochemical, human TNAP, uHTS hits (AID 488906). It counts as functional.

Test [23] deals with Intestinal-type alkaline phosphatase (Mus musculus, UniProt P24822). Description: PubChem AID 488785. In kind it is functional.
Chain of Intestinal-type alkaline phosphatase (Mus musculus, UniProt P24822) (P24822 whole entry): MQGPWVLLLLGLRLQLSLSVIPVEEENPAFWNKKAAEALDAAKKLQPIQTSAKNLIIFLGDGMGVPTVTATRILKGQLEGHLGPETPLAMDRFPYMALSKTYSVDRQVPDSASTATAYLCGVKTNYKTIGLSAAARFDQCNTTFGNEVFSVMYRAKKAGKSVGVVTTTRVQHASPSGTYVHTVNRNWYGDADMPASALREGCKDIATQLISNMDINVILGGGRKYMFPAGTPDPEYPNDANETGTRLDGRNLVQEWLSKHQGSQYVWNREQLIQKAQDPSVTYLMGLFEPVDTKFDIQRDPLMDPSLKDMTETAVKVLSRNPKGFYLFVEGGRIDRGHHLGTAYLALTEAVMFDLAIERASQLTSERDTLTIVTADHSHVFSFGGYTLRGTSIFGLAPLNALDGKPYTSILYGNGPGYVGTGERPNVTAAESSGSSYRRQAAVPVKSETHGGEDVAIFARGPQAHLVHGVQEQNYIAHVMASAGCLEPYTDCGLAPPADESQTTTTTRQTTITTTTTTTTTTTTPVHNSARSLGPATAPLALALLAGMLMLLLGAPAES
Test [24] deals with Intestinal-type alkaline phosphatase (Homo sapiens, UniProt P09923). Description: activation of human intestinal alkaline phosphatase – biochemical, dose response (AID 488873). It counts as functional.
The target of test [25] is Lysine-specific demethylase 4C (Homo sapiens, UniProt Q9H3R0). Briefly: inhibition of JMJD2C H3K9me3 demethylation – biochemical, DELFIA europium, cherry-picked samples, dose response (AID 488835). It counts as functional.
Chain of Lysine-specific demethylase 4C (Q9H3R0 whole entry): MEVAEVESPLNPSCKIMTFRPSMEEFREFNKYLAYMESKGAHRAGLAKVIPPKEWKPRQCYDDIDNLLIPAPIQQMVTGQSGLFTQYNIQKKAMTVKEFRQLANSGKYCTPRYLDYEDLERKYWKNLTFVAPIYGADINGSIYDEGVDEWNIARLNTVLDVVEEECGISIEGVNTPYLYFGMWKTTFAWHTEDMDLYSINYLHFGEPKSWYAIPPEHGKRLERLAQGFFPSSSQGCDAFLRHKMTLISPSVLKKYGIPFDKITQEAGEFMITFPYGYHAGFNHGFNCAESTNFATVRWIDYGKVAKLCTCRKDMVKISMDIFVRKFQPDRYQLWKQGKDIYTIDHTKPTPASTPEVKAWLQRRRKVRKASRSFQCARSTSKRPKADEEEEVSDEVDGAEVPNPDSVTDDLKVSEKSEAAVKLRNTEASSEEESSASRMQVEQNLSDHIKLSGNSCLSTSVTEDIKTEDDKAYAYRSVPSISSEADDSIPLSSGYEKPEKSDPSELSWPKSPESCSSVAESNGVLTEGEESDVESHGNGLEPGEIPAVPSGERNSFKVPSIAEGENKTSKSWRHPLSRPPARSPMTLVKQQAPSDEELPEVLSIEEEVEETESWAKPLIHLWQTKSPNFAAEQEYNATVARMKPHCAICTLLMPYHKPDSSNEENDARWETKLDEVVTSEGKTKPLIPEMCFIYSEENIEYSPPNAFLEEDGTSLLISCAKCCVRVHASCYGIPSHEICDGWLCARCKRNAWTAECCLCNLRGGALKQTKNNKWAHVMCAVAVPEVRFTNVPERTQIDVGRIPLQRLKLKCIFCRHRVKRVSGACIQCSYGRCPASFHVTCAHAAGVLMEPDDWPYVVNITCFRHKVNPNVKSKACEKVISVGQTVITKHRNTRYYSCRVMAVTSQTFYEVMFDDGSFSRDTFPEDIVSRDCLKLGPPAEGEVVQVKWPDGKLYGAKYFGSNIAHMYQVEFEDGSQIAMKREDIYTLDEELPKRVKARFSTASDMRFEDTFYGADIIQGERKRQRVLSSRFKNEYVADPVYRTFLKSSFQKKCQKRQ
Test [26] has as its target UDP-galactopyranose mutase (Mycobacterium tuberculosis, UniProt P9WIQ1). Briefly: Inhibitors of Mycobacterium tuberculosis UDP-galactopyranose mutase (UGM) enzyme Measured in Biochemical System Using Plate Reader - 2105-02_Inhibitor_Dose_CherryPick_Activity. [Related pubchem assays (depositor defined):AID504439].
Test [27] can be described thus: viability loss of HMLE_sh_eGFP cells – cell-based, luminescence, counter-screen for HMLE_sh_ECad selective toxicity project, dose response (AID 463074).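 Further: HMLE human mammary epithelial cells expressing control shRNA against eGFP.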 In kind it is functional, Homo sapiens.
For test [28], the target named is T5, Tyrosine-protein phosphatase non-receptor type 22. In kind it is functional.
The target is the same in test [29]. It counts as functional. The source holds these as a separate data set.
Test [30] has as its target T6, Tyrosine-protein phosphatase non-receptor type 7. It counts as functional.

T1 sequence (P34972 whole entry): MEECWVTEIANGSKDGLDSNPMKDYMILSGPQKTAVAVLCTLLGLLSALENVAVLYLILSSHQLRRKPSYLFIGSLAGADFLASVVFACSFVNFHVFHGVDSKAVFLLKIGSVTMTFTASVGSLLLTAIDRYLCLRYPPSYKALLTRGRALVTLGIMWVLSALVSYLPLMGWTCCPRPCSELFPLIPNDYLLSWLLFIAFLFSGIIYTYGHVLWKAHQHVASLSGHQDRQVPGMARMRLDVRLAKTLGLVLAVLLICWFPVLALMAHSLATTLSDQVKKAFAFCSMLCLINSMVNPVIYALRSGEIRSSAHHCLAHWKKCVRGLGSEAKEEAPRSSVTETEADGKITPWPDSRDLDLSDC
Chain of UDP-galactopyranose mutase (P9WIQ1 whole entry): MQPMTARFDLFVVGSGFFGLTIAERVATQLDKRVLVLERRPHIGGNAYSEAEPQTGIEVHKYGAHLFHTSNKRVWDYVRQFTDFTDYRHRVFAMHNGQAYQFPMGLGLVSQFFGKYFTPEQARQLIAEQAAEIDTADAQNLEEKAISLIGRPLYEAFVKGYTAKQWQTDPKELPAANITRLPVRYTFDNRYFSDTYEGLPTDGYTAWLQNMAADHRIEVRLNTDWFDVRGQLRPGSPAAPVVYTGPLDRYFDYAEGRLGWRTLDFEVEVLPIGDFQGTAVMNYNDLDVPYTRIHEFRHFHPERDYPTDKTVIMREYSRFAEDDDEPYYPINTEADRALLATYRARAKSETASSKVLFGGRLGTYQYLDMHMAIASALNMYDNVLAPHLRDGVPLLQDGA
Chain of 72 kDa type IV collagenase (P08253 whole entry): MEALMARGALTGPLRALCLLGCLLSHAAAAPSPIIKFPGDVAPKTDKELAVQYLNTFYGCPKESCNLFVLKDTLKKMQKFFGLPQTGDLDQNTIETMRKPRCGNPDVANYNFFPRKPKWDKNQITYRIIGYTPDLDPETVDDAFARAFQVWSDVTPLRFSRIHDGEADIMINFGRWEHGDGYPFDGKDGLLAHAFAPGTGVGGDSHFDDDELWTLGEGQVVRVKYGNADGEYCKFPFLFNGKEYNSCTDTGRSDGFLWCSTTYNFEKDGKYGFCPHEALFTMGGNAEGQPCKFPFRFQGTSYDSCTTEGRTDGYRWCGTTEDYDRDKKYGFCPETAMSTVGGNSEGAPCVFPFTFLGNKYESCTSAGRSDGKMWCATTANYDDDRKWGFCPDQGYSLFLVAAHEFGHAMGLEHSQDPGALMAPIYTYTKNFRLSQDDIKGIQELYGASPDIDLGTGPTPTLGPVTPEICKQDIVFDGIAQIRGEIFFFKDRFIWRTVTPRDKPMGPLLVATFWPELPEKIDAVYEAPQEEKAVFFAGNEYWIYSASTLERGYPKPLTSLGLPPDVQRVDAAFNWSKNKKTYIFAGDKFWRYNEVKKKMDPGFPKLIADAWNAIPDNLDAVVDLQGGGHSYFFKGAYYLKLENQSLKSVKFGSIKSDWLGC
Chain of 26S proteasome non-ATPase regulatory subunit 14 (O00487 whole entry): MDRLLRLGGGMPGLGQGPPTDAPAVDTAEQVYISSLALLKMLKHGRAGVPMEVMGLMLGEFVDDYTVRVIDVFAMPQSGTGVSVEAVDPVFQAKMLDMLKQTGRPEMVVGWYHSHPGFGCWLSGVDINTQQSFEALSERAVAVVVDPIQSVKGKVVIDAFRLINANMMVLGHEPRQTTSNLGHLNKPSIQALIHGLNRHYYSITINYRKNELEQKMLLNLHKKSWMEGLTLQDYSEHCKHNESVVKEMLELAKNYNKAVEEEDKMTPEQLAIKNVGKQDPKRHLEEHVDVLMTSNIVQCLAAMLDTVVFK

One may read the IC50 as the concentration that inhibits the measured activity by half. A word on the EC50: it is the midpoint of the concentration-response curve. The AC50 is the concentration at which the activity in the assay is half-maximal. As for `Cc1cc(OCC(=O)Nc2ccc(S(=O)(=O)NC3=NCCCCC3)cc2)c(C(C)C)cc1Cl`, the IC50 in test [1] was > 32 µM (inactive); in test [3], 1.08 µM (active); in test [4], 3.16 µM (active); in test [8] it was > 32 µM (inactive). Also, the EC50 in test [2], in test [5] and in test [6] was > 32 µM (inactive) throughout. For the same compound, in test [7], the AC50 was 6.13 µM (active).

With `O=C(CCCN1C(=O)/C(=C/c2ccc3c(c2)OCO3)SC1=S)Nc1ccc(C(=O)O)cc1`, the half-maximal inhibitory concentration (IC50) in test [9] is 12.1 µM (active); in [10], 91.4 µM (active); in [11], 47 µM (active); in test [12], 0.563 µM (active); in test [13] it was 43 µM (active); in [14], 1.99 µM (active). Further, the half-maximal inhibitory concentration (IC50) in test [15] is 4.07 µM (active); in test [16], 20 µM (inactive); in test [17] it was 38.9 µM (active); in test [18], 40.7 µM (active).

Take `COc1cc([N+](=O)[O-])ccc1/N=c1\ssnc1Cl`: the IC50 was 3.25 µM (active) in test [19] and > 100 µM (inactive) in [20].

On to `O=C(NNC(=S)NC(=O)c1cccs1)c1ccc(O)cc1`, for which the IC50 in test [21] is > 94 µM (inactive); in test [22], > 100 µM (inactive); in test [23] it was 11.9 µM (active). In addition, the EC50 in test [24] is > 100 µM (inactive).

For the compound `c1cc2c(cc1-c1csc(NNC3=NCCCCC3)n1)OCCO2`, the AC50 in [25] was 17 µM (active).

In the case of `O=C(NCc1ccc(F)cc1)c1cccc2c1C(=O)c1ccc(N3CCC(Cc4ccccc4)CC3)cc1S2(=O)=O`, the AC50 in test [26] is 5.84 µM (active).

Turning to `CN1CCN(/N=C/c2ccc(OCc3ccccc3)cc2)CC1`, the figures for the half-maximal activity concentration (AC50) in test [7] and in test [27] were 5.25 µM (active) and 56 µM (active), respectively.

As to `CC(C)n1c(C(=O)OCC(=O)NCc2ccc3c(c2)OCO3)cc2occc21`, the IC50 in [28], in [29] and in test [30] was > 79.4 µM (inactive) in each case.
